Assay results reported in ChEMBL document CHEMBL1149563 (Bioorg Med Chem Lett, 2007).
pEC50, pIC50, pKi: −log10 of the molar value.

How the values were obtained:
Androgen receptor [1] = target: T1, Androgen receptor (Mus musculus, UniProt P19091); test: Agonist activity at androgen receptor in mouse C2C12 cells by receptor transactivation assay; format: functional, cell-based
T1 sequence (P19091 whole entry): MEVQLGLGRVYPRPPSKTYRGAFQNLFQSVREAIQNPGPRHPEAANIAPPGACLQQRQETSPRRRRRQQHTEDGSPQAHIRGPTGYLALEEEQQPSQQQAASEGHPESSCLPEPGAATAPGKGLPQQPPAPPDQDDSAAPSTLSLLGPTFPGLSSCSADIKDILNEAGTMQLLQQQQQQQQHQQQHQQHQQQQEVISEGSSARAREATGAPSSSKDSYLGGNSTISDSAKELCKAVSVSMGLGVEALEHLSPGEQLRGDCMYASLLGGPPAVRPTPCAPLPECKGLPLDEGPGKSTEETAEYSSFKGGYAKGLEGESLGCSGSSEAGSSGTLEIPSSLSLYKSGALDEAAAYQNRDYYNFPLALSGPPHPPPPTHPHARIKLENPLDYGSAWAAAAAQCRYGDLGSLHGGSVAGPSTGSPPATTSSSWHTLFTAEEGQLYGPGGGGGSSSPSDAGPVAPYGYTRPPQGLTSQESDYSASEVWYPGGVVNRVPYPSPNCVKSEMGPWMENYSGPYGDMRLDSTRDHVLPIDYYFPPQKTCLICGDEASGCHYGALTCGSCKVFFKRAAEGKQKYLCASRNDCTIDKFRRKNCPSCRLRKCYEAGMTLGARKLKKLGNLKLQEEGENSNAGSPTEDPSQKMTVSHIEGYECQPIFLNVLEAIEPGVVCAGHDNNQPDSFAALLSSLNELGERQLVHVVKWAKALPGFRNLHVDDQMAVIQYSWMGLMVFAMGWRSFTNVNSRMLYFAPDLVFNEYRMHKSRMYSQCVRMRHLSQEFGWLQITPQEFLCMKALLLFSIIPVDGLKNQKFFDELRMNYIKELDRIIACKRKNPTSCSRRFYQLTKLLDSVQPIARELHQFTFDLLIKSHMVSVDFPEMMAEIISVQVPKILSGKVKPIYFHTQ

Androgen receptor [2] = target: T2, Androgen receptor (Homo sapiens, UniProt P10275); test: Displacement of [3H]DHT from human androgen receptor in MDA453 cells; format: cell-based
T2 sequence (P10275 whole entry): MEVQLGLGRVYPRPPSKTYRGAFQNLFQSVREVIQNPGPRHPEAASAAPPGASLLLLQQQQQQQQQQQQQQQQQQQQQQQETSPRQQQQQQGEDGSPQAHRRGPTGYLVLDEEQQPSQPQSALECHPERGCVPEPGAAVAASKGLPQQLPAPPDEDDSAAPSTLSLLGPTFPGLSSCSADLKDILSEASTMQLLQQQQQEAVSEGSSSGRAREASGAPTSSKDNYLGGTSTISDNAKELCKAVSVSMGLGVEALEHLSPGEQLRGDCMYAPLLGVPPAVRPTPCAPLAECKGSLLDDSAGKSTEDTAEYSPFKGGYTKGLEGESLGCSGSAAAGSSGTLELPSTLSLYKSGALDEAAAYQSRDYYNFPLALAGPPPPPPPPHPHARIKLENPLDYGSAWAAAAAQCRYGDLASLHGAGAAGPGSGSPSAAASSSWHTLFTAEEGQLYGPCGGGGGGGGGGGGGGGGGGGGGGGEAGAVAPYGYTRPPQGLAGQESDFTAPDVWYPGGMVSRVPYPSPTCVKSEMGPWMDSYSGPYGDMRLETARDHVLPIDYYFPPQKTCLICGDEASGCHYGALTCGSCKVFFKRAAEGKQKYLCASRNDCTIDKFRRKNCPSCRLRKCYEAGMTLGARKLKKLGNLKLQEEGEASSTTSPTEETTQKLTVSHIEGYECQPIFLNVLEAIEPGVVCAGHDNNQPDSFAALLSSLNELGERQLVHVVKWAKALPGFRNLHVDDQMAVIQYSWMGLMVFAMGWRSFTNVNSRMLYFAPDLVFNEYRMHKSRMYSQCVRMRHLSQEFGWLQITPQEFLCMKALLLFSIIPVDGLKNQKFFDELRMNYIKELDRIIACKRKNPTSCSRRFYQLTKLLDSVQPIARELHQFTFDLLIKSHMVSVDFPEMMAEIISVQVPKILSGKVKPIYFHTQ

Rattus norvegicus [3] = test: Effect on […] in castrated rat at 10 mg/kg, po after 14 days relative to intact rat; format: functional
Rattus norvegicus [4] = test: Effect on levator ani muscle weight in castrated rat at 10 mg/kg, po after 14 days relative to intact rat; format: functional
[5] = Cmax in rat at 5 mg/kg, iv or 10 mg/kg, po; format: ADME, organism-based; conditions: in vivo
[6] = Clearance in rat at 5 mg/kg, iv or 10 mg/kg, po; format: ADME, organism-based; conditions: in vivo
[7] = Half life in rat at 5 mg/kg, iv or 10 mg/kg, po; format: ADME, organism-based; conditions: in vivo
[8] = Oral bioavailability in rat at 10 mg/kg; format: ADME, organism-based; conditions: in vivo
Androgen receptor [9] = target: T1, Androgen receptor
Description: Antagonist activity at androgen receptor in mouse C2C12 cells by receptor transactivation assay

Rattus norvegicus [10] = test: Effect on […] in castrated rat at 0.3 mg/kg, sc after 14 days relative to intact rat; format: functional; conditions: route subcutaneous
Rattus norvegicus [11] = test: Effect on levator ani muscle weight in castrated rat at 0.3 mg/kg, sc after 14 days relative to intact rat; format: functional; conditions: route subcutaneous

| Structure (SMILES) | pEC50 (Androgen receptor [1]) | pKi (Androgen receptor [2]) | other results |
| --- | --- | --- | --- |
| COC(=O)[C@@H]1[C@H](O)CCN1S(=O)(=O)Nc1ccc(C#N)c(Cl)c1C | 5.13 |  |  |
| Cc1c(N2C(=O)[C@@H]3[C@H](O)CCN3C2=O)ccc(C#N)c1Cl | 9.36 |  |  |
| Cc1c(N2C(=O)[C@]3(C)[C@H](O)CCN3S2(=O)=O)ccc(C#N)c1Cl | 5.90 | 8.09 |  |
| Cc1c(N2C(=O)[C@@H]3[C@H](O)CCN3S2(=O)=O)ccc(C#N)c1Cl | 7.92 | 9.35 | Activity (Rattus norvegicus [3]): 10%; Activity (Rattus norvegicus [4]): 70%; Cmax [5]: 8.4 µM; clearance [6]: 12.8 mL/min/kg; half-life [7]: 54 min; bioavailability [8]: 53% |
| COC(=O)[C@@H]1[C@H](O)CCN1S(=O)(=O)c1ccc(C#N)c(Cl)c1C | < 5.52 | 7.44 | pIC50 (Androgen receptor [9]): 6.56 |
| Cc1c(N2C(C)[C@@H]3[C@@H](O)CCN3S2(=O)=O)ccc(C#N)c1Cl (stereo not given in full) | 5.05 | 7.70 |  |
| CCC(=O)O[C@H]1CC[C@H]2[C@@H]3CCC4=CC(=O)CC[C@]4(C)[C@H]3CC[C@]12C [TESTOSTERONE PROPIONATE] | 8.55 | 9.60 | Activity (Rattus norvegicus [10]): 70%; Activity (Rattus norvegicus [11]): 70% |
| Cc1c(N2C[C@@H]3[C@H](O)CCN3S2(=O)=O)ccc(C#N)c1Cl | 5.11 | 7.85 |  |
| Cc1c(N2C[C@@H]3[C@@H](O)CCN3S2(=O)=O)ccc(C#N)c1Cl |  | 6.72 |  |
| Cc1c(NS(=O)(=O)N2CC[C@@H](O)[C@H]2C(=O)O)ccc(C#N)c1Cl | 8.55 |  |  |
| Cc1c(N2C(=O)[C@@H]3[C@@H](O)CCN3S2(=O)=O)ccc(C#N)c1Cl | 5.53 | 7.54 |  |
| Cc1c(N2C(=O)[C@@H]3C[C@H](O)CN3S2(=O)=O)ccc(C#N)c1Cl | 5.45 | 7.36 |  |
| N#Cc1ccc(N2C(=O)[C@@H]3[C@H](O)CCN3C2=O)c2ccccc12 | 8.64 |  |  |
